Values quoted from earlier work as cited in patent US20140142181A1, “TREATING AND INHIBITING RECURRENCE OF MUSCLE CRAMPS” (priority 2012, published 2014).

What was measured:
[1] = received by USFDA; quinine use
cramping = conditions: 39 Division I baseball players; creatine supplementation during training and competition

| SMILES | Deaths among reported adverse events [1] | Reports of adverse events with serious outcomes [1] | Cramping, creatine group versus non-creatine group (cramping) |
| --- | --- | --- | --- |
| C=C[C@H]1C[N@@]2CC[C@H]1C[C@H]2[C@H](O)c1ccnc2ccc(OC)cc12 [quinine, Quinine] | 93 | 665 | – |
| CN(CC(=O)O)C(=N)N [creatine] | – | – | no significant difference |
